Measurements: patent US8642594B2, “Substituted thieno[2,3-d]pyrimidines as HSP90 inhibitors” (Vernalis (R&D) Limited, priority 2003, dated 2014)
Where two headings read alike, the source gives them in different places.

Target: T1, Human full-length Hsp90 (Homo sapiens, UniProt P08238)
T1 construct: E. coli expressed human full-length HSP90 protein, purified >95%; made in house; host or cells: E. coli
Experiment: Fluorescence polarization assay (competitive binding to HSP90, probe RBT0045864-FAM)
Procedure: Fluorescence Polarization Assay
Fluorescence polarization {also known as fluorescence anisotropy} measures the rotation of a fluorescing species in solution, where the larger molecule the more polarized the fluorescence emission. When the fluorophore is excited with polarized light, the emitted light is also polarized. The molecular size is proportional to the polarization of the fluorescence emission.
The fluoroscein-labelled probe—RBT0045864-FAM—
Test compound is added to the assay plate, left to equilibrate and the anisotropy measured again. Any change in anisotropy is due to competitive binding of compound to HSP90, thereby releasing probe.
Stored at room temperature. • 3) BSA (bovine serum albumen) 10 mg/ml (New England Biolabs #B9001S) • 4) 20 mM probe in 100% DMSO stock concentration. Stored in the dark at RT. Working concentration is 200 nM diluted in AR water and stored at 4° C. […] Protocol • 1) Add 100 μl 1× buffer to wells 11A and 12A (=FP BLNK) • 2) Prepare assay mix—all reagents are kept on ice with a lid on the bucket as the probe is light-sensitive.
This gives 2.5 mM {50×} stock cpd—assuming cpds 20 mM. • 4) Repeat for wells A2 to A10. Control in columns 11 and 12. • 5) Transfer 5 μl from row A to row B—not column 12. Mix well. • 6) Transfer 5 μl from row B to row C. […] Add 2 μl of 100 mM standard cpd to wells B12-H12 {is positive control} • 13) The Z′ factor is calculated from zero controls and positive wells.

[1] = fluorescence polarization assay, activity range, read-out: Hsp90 FP IC50

T1 sequence (P08238 whole entry): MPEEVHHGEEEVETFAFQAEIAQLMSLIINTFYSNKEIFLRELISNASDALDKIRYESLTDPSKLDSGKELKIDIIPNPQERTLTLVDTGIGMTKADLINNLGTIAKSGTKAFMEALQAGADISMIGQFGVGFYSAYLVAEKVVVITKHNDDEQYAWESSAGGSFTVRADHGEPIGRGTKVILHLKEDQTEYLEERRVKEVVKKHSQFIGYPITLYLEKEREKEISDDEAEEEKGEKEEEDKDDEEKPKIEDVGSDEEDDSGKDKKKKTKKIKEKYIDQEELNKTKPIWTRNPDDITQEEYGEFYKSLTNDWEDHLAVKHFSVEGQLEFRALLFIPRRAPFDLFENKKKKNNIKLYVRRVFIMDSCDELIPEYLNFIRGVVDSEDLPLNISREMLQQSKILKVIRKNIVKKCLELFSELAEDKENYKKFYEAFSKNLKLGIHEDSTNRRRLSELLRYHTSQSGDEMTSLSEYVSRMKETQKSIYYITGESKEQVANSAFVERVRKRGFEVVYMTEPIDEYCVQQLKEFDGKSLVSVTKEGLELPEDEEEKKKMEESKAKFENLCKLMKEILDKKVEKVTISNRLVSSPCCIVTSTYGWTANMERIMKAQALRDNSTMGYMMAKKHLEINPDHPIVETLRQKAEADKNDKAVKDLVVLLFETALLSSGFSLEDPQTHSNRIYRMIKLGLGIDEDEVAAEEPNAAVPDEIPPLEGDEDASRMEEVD

Row | Structure (SMILES) | IC50 [1] | IC50
1 | CCOC(=O)c1cc2c(-c3ccc(Cl)cc3Cl)nc(N)nc2s1 [Example 89] | < 10 µM | –
2 | Nc1nc(-c2ccc(Cl)cc2Cl)c2cc(C(=O)NCc3ccncc3)sc2n1 [Example 141] | < 10 µM | –
3 | CCOC(=O)c1cc2c(-c3ccc(OCC(N)=O)cc3C)nc(N)nc2s1 [Example 191] | < 10 µM | –
4 | CS(=O)(=O)c1ccc(CNC(=O)c2cc3c(-c4ccc(Cl)cc4Cl)nc(N)nc3s2)cc1 [Example 117] | < 10 µM | –
5 | COC(=O)c1cc2c(N(C)Cc3ccccc3)nc(N)nc2s1 [Example 23] | > 10 µM | –
6 | CCNC(=O)c1cc2c(-c3cc(OCCN4CCC(F)(F)CC4)c(Cl)cc3Cl)nc(N)nc2s1 [Example 250] | – | < 10 µM
7 | CCNC(=O)c1cc2c(-c3cc(OCCNCCOC)c(Cl)cc3Cl)nc(N)nc2s1 [Example 247] | – | < 10 µM
8 | CCNC(=O)c1cc2c(-c3cc(CNCc4ccc(C)o4)ccc3C)nc(N)nc2s1 [Example 211] | < 10 µM | –
9 | CCOC(=O)c1cc2c(-c3cc(C=O)c(C)cc3C)nc(N)nc2s1 [Example 174] | < 10 µM | –
10 | CCOC(=O)c1cc2c(-c3ccsc3)nc(N)nc2s1 [Example 18] | > 10 µM | –
11 | CCN(CC)CCOc1cc(-c2nc(N)nc3sc(C(=O)NC4CC4)cc23)c(Cl)cc1Cl [Example 251] | – | < 10 µM
12 | CCOC(=O)c1cc2c(-c3ccc(C)cc3)nc(N)nc2s1 [Example 11] | < 10 µM | –
13 | CCOC(=O)c1cc2c(Oc3ccccc3)nc(N)nc2s1 [Example 19] | > 10 µM | –
14 | CCOC(=O)c1cc2c(-c3cccnc3)nc(N)nc2s1 [Example 94] | > 10 µM | –
15 | CCNC(=O)c1cc2c(-c3cc(OCCN4CCCC4)c(Cl)cc3Cl)nc(N)nc2s1 [Example 253] | – | < 10 µM
16 | CCOC(=O)c1cc2c(-c3cc4ccccc4o3)nc(N)nc2s1 [Example 13] | > 10 µM | –
17 | CCCNC(=O)c1cc2c(-c3ccc(C)cc3C)nc(N)nc2s1 [Example 61] | < 10 µM | –
18 | CCOC(=O)c1cc2c(-c3ccc(OCC)cc3)nc(N)nc2s1 [Example 8] | < 10 µM | –
19 | Nc1nc(-c2ccc(Cl)cc2Cl)c2cc(C(=O)NC3CCCC3)sc2n1 [Example 153] | < 10 µM | –
20 | CCOC(=O)c1cc2c(NC3CCCCC3)nc(N)nc2s1 [Example 24] | > 10 µM | –
21 | CCOC(=O)c1cc2c(-c3ccc(C#N)cc3Cl)nc(N)nc2s1 [Example 148] | < 10 µM | –
22 | CN1CCCC1CCNC(=O)c1cc2c(-c3ccc(Cl)cc3Cl)nc(N)nc2s1 (centres unmarked) [Example 157] | < 10 µM | –
23 | CCOC(=O)c1cc2c(-c3ccc(OCC#N)cc3C)nc(N)nc2s1 [Example 188] | < 10 µM | –
24 | CCOC(=O)c1cc2c(-c3cc(C(=O)OC)ccc3C)nc(N)nc2s1 [Example 179] | < 10 µM | –
25 | CCOC(=O)c1cc2c(NCCCc3c[nH]nc3O)nc(N)nc2s1 [Example 36] | > 10 µM | –
26 | CCNC(=O)c1cc2c(-c3ccc(C)cc3Cl)nc(N)nc2s1 [Example 152] | < 10 µM | –

Row | Structure (SMILES) | IC50 [1] | IC50
27 | CCOC(=O)c1sc2nc(N)nc(-c3ccccc3)c2c1N [Example 74, 2,5-Diamino-4-phenyl-thieno[2,3-d]pyrimidine-6-carboxylic acid ethyl ester] | > 10 µM | –
28 | CCOC(=O)c1cc2c(-c3cccc4cccnc34)nc(N)nc2s1 [Example 100] | > 10 µM | –
29 | CCNC(=O)c1cc2c(-c3cc(CNC4CCCC4)ccc3C)nc(N)nc2s1 [Example 199] | < 10 µM | –
30 | CCCNCc1ccc(C)c(-c2nc(N)nc3sc(C(=O)NCC)cc23)c1 [Example 197, 2-Amino-4-(2-methyl-5-propylaminomethyl-phenyl)-thieno[2,3-d]pyrimidine-6-carboxylic acid ethylamide] | < 10 µM | –
31 | COc1ccc(NC(=O)c2cc3c(-c4ccc(Cl)cc4Cl)nc(N)nc3s2)cc1 [Example 113] | < 10 µM | –
32 | CCOC(=O)c1cc2c(-c3ccc(OC(C)C)cc3)nc(N)nc2s1 [Example 5] | > 10 µM | –
33 | NC(=O)CCNC(=O)c1cc2c(-c3ccc(Cl)cc3Cl)nc(N)nc2s1 [Example 131] | < 10 µM | –
34 | CCNC(=O)c1cc2c(-c3cc(CNC4CC4)ccc3C)nc(N)nc2s1 [Example 203] | < 10 µM | –
35 | NC(=O)[C@H](CO)NC(=O)c1cc2c(-c3ccc(Cl)cc3Cl)nc(N)nc2s1 [Example 162] | < 10 µM | –
36 | C=Cc1ccc(-c2nc(N)nc3sc(C(=O)OCC)cc23)c(C)c1 [Example 168] | < 10 µM | –
37 | Nc1nc(-c2ccc(Cl)cc2Cl)c2cc(C(=O)NCc3ccco3)sc2n1 [Example 125] | < 10 µM | –
38 | CCN1CCCC1CNC(=O)c1cc2c(-c3ccc(Cl)cc3Cl)nc(N)nc2s1 (centres unmarked) [Example 129] | < 10 µM | –
39 | CCNC(=O)c1cc2c(-c3cc(CNCC4CCCO4)ccc3C)nc(N)nc2s1 (centres unmarked) [Example 223] | < 10 µM | –
40 | CCCNC(=O)c1ccc(C)c(-c2nc(N)nc3sc(C(=O)OCC)cc23)c1 [Example 181] | < 10 µM | –
41 | NC(=O)[C@H](Cc1ccc(O)cc1)NC(=O)c1cc2c(-c3ccc(Cl)cc3Cl)nc(N)nc2s1 [Example 163] | < 10 µM | –
42 | CCOC(=O)c1cc2c(-c3ccccn3)nc(N)nc2s1 [Example 104] | > 10 µM | –
43 | CC(C)CNC(=O)c1cc2c(-c3ccccc3)nc(N)nc2s1 [Example 52] | > 10 µM | –
44 | CCNC(=O)c1cc2c(-c3cc(CNCC(N)=O)ccc3C)nc(N)nc2s1 [Example 219] | < 10 µM | –
45 | Nc1nc(-c2ccc(Cl)cc2Cl)c2cc(C(=O)NCc3cccnc3)sc2n1 [Example 123] | < 10 µM | –
46 | CN(C)CCNC(=O)c1cc2c(-c3ccccc3)nc(N)nc2s1 [Example 44] | < 10 µM | –
47 | CCOC(=O)c1cc2c(-c3cc(C)ccc3C)nc(N)nc2s1 [Example 88] | < 10 µM | –
48 | CCOC(=O)c1cc2c(-c3cccc(CN4CCCC4)c3)nc(N)nc2s1 [Example 7] | > 10 µM | –
49 | CCOC(=O)c1cc2c(-c3ccc(C)cn3)nc(N)nc2s1 [Example 114] | < 10 µM | –
50 | CCOC(=O)c1cc2c(-c3cccc(C)c3C)nc(N)nc2s1 [Example 87] | < 10 µM | –
51 | CCOC(=O)c1cc2c(-c3c(C)cccc3C)nc(N)nc2s1 [Example 6] | < 10 µM | –

Second part, led by results:

Row | IC50 [1] | Structure (SMILES) | IC50
52 | < 10 µM | CCOC(=O)c1cc2c(C(=O)c3cc(C)cc(C)c3)nc(N)nc2s1 [Example 300] | –
53 | < 10 µM | CCNC(=O)c1cc2c(-c3cccc(OCCN(CC)CC)c3)nc(N)nc2s1 [Example 260] | –
54 | < 10 µM | CCOC(=O)c1cc2c(C(C)c3ccccc3)nc(N)nc2s1 (centres unmarked) [Example 285] | –
55 | < 10 µM | CCNC(=O)c1cc2c(-c3cc(O)c(Cl)cc3Cl)nc(N)nc2s1 [Example 240] | –
56 | < 10 µM | CCNC(=O)c1cc2c(-c3cc(OCc4cc(=O)[nH]c(=O)[nH]4)c(Cl)cc3Cl)nc(N)nc2s1 [Example 268] | –
57 | < 10 µM | CCNC(=O)c1cc2c(-c3cc(OCc4ccccc4)c(Cl)cc3Cl)nc(N)nc2s1 [Example 241] | –
58 | < 10 µM | CCOC(=O)c1cc2c(C(=O)c3ccc(C)c(C)c3)nc(N)nc2s1 [Example 306] | –
59 | < 10 µM | CCNC(=O)c1cc2c(-c3cc(CNCCO)c(C)cc3C)nc(N)nc2s1 [Example 234] | –
60 | < 10 µM | CCOC(=O)c1cc2c(/C=C/c3cccc(C(F)(F)F)c3)nc(N)nc2s1 [Example 284] | –
61 | < 10 µM | CCNC(=O)c1cc2c(-c3cc(OCCN4CCCCC4)c(Cl)cc3Cl)nc(N)nc2s1 [Example 238] | –
62 | < 10 µM | CCNC(=O)c1cc2c(-c3cc(OCCNC4CCCCC4)c(Cl)cc3Cl)nc(N)nc2s1 [Example 245] | –
63 | < 10 µM | CCOC(=O)c1cc2c(/C=C/c3ccc(F)cc3)nc(N)nc2s1 [Example 282] | –
64 | < 10 µM | CC(C)NC(=O)c1cc2c(-c3cc(OCc4ccccc4)c(Cl)cc3Cl)nc(N)nc2s1 [Example 242] | –
65 | < 10 µM | CCOC(=O)c1cc2c(C(=O)c3cccc(C)c3C)nc(N)nc2s1 [Example 307] | –
66 | < 10 µM | CCCNCc1cc(-c2nc(N)nc3sc(C(=O)NCC)cc23)c(C)cc1C [Example 231] | –
67 | < 10 µM | CCOC(=O)c1cc2c(C(=O)c3ccccc3Cl)nc(N)nc2s1 [Example 302] | –
68 | < 10 µM | CCOC(=O)c1cc2c(C(=O)c3ccccc3F)nc(N)nc2s1 [Example 301] | –
69 | < 10 µM | CCOC(=O)c1cc2c(C(=O)c3ccc(Cl)c(Cl)c3)nc(N)nc2s1 [Example 309] | –
70 | < 10 µM | CCOC(=O)c1cc2c(C(=O)c3ccc(Cl)cc3)nc(N)nc2s1 [Example 295, 2-Amino-4-(4-chloro-benzoyl)-thieno[2,3-d]pyrimidine-6-carboxylic acid ethyl ester] | –
71 | < 10 µM | C=C(c1ccc(Cl)cc1)c1nc(N)nc2sc(C(=O)OCC)cc12 [Example 280] | –
72 | > 10 µM | CCOC(=O)c1cc2c(-c3c[nH]c4ccccc34)nc(N)nc2s1 [Example 294] | –
73 | < 10 µM | CCOC(=O)c1cc2c(-c3cc(OCc4ccccc4)c(Cl)cc3Cl)nc(N)nc2s1 [Example 239] | –
74 | < 10 µM | CCN(CC)CCOc1cc(-c2nc(N)nc3sc(C(=O)NC(C)(C)C)cc23)c(Cl)cc1Cl [Example 265] | –
75 | < 10 µM | CCOC(=O)c1cc2c(C(=O)c3ccc(OC)c(F)c3)nc(N)nc2s1 [Example 314] | –
76 | < 10 µM | CCNC(=O)c1cc2c(-c3cccc(OCc4ccccc4)c3)nc(N)nc2s1 [Example 243] | –
77 | > 10 µM | CC=Cc1nc(N)nc2sc(C(=O)OCC)cc12 [Example 291] | –
